≈ marks a conversion by molar mass, not a printed value. Blank lines part the entries; values can stand above or below the compound they belong to.
Key:
Assay in all cases: ≥ marks a high value that may be exact or a test limit, other limits are often not marked, values filed in µg/mL are converted to µM
[1] = test system: Acinetobacter baumannii ATCC 17978
[2] = test system: Bacillus subtilis ATCC 13933
[3] = test system: Candida albicans ATCC 90028
[4] = test system: Escherichia coli ATCC 700928
[5] = test system: Escherichia coli NCTC 12923
[6] = test system: Klebsiella pneumoniae NCTC 13368
[7] = test system: Pseudomonas aeruginosa PAO1
[8] = test system: Staphylococcus aureus ATCC 9144
[9] = test system: Staphylococcus aureus USA 300
[10] = test system: Aspergillus flavus KCTC 6905
[11] = test system: Aspergillus fumigatus KCTC 6145
[12] = test system: Bacillus subtilis KCTC 1998
[13] = test system: Candida albicans KCTC 7270
[14] = test system: Candida krusei CCARM 14017
[15] = test system: Candida parapsilosis CCARM 14016
[16] = test system: Candida tropicalis KCTC 7221
[17] = test system: Escherichia coli ATCC 25922
[18] = test system: Fusarium oxysporum KCTC 16909
[19] = test system: Fusarium solani KCTC 6326
[20] = test system: Fusarium verticillioides KCTC 6149
[21] = test system: Pseudomonas aeruginosa ATCC 15692
Pseudomonas aeruginosa = test system: Pseudomonas aeruginosa
[22] = test system: Staphylococcus aureus ATCC 25923
Staphylococcus aureus = test system: Staphylococcus aureus
[23] = test system: Trichophyton rubrum KCTC 6345
[24] = test system: Trichosporon beigelii KCTC 7707
[25] = test system: Bacillus subtilis CMCC 63501
[26] = test system: Micrococcus luteus CMCC 28001
[27] = test system: Ralstonia solanacearum ATCC 33192
[28] = test system: Salmonella enterica subsp. enterica serovar Typhi CMCC 50071
[29] = test system: Shigella dysenteriae CMCC 51252
[30] = test system: Streptococcus pneumoniae ATCC 49619
[31] = test system: Acinetobacter baumannii CCARM 12005
[32] = test system: Acinetobacter baumannii CCARM 12035
[33] = test system: Acinetobacter baumannii CCARM 12036
[34] = test system: Acinetobacter baumannii CCARM 12037
[35] = test system: Bacillus subtilis KCTC 3068
[36] = test system: Enterococcus faecalis KCTC 2011
[37] = test system: Escherichia coli CCARM 1229
[38] = test system: Escherichia coli CCARM 1238
[39] = test system: Escherichia coli KCTC 1682
[40] = test system: Pseudomonas aeruginosa CCARM 2002
[41] = test system: Pseudomonas aeruginosa CCARM 2095
[42] = test system: Pseudomonas aeruginosa CCARM 2163
[43] = test system: Pseudomonas aeruginosa KCTC 1637
[44] = test system: Salmonella typhimurium CCARM 8003
[45] = test system: Salmonella typhimurium CCARM 8007
[46] = test system: Salmonella typhimurium CCARM 8009
[47] = test system: Salmonella typhimurium KCTC 1926
[48] = test system: Staphylococcus aureus CCARM 3089
[49] = test system: Staphylococcus aureus CCARM 3108
[50] = test system: Staphylococcus aureus CCARM 3126
[51] = test system: Staphylococcus aureus KCTC 1621

MIC [1]: ≥ 59.5 µM
MIC [2]: ≥ 55.8 µM
MIC [3]: 2.2 µM (≈ 4.73 µg/mL)
MIC [4]: ≥ 55.8 µM
MIC [5]: ≥ 59.5 µM
MIC [6]: ≥ 59.5 µM
MIC [7]: > 59.5 µM
MIC [8]: ≥ 59.5 µM
MIC [9]: ≥ 59.5 µM
SMILES: CC[C@H](C)[C@H](NC(=O)CNC(=O)[C@@H](N)CCCCN)C(=O)N[C@@H](CCCN=C(N)N)C(=O)NCC(=O)N[C@@H](Cc1ccc(O)cc1)C(=O)N[C@@H](CCCCN)C(=O)NCC(=O)NCC(=O)N[C@@H](Cc1ccc(O)cc1)C(=O)N[C@@H](CCCCN)C(=O)NCC(=O)N[C@@H](C)C(=O)N[C@@H](Cc1ccccc1)C(=O)N[C@@H](CCCCN)C(=O)N[C@@H](CCC(N)=O)C(=O)N[C@H](C(=O)N[C@@H](CCCCN)C(=O)N[C@@H](Cc1ccc(O)cc1)C(=O)O)[C@@H](C)O [KGIRGYKGGYKGAFKQTKY]

MIC [10]: 2.83 µM (≈ 6.38 µg/mL)
MIC [11]: 2.83 µM (≈ 6.38 µg/mL)
MIC [12]: 2 µM (≈ 4.51 µg/mL)
MIC [13]: 16 µM (≈ 36.1 µg/mL)
MIC [14]: 8 µM (≈ 18 µg/mL)
MIC [15]: 16 µM (≈ 36.1 µg/mL)
MIC [16]: 4 µM (≈ 9.02 µg/mL)
MIC [17]: 1 µM (≈ 2.26 µg/mL)
MIC [18]: 1.41 µM (≈ 3.19 µg/mL)
MIC [19]: 1 µM (≈ 2.26 µg/mL)
MIC [20]: 1.41 µM (≈ 3.19 µg/mL)
MIC [21]: 2 µM (≈ 4.51 µg/mL)
MIC (Pseudomonas aeruginosa): 1.41 µM (≈ 3.19 µg/mL)
MIC [22]: 2 µM (≈ 4.51 µg/mL)
MIC (Staphylococcus aureus): 1.41 µM (≈ 3.19 µg/mL)
MIC [23]: 1.41 µM (≈ 3.19 µg/mL)
MIC [24]: 1 µM (≈ 2.26 µg/mL)
SMILES: CC[C@H](C)[C@H](NC(=O)[C@H](CC(C)C)NC(=O)[C@H](CCCCN)NC(=O)[C@H](CCCCN)NC(=O)[C@H](CC(C)C)NC(=O)[C@H](CCCN=C(N)N)NC(=O)[C@H](CCCCN)NC(=O)[C@@H](N)Cc1ccccc1)C(=O)N[C@@H](CO)C(=O)N[C@@H](Cc1c[nH]c2ccccc12)C(=O)N[C@H](C(=O)N[C@@H](CCCCN)C(=O)N[C@@H](CCCN=C(N)N)C(=O)N[C@@H](CCCCN)C(=O)N[C@@H](CCCN=C(N)N)C(=O)N[C@@H](CCC(N)=O)C(=O)N[C@@H](CCC(N)=O)C(N)=O)[C@@H](C)CC [FKRLKKLISWIKRKRQQ]

MIC [25]: 6.26 µM (≈ 12.5 µg/mL)
MIC [17]: 6.26 µM (≈ 12.5 µg/mL)
MIC [26]: 12.5 µM (≈ 25 µg/mL)
MIC [27]: 6.26 µM (≈ 12.5 µg/mL)
MIC [28]: 3.13 µM (≈ 6.25 µg/mL)
MIC [29]: 1.57 µM (≈ 3.14 µg/mL)
MIC [22]: 12.5 µM (≈ 25 µg/mL)
MIC [30]: 6.26 µM (≈ 12.5 µg/mL)
SMILES: CC[C@H](C)[C@H](NC(=O)[C@H](Cc1c[nH]c2ccccc12)NC(=O)[C@@H](N)CCSC)C(=O)N[C@H](C(=O)N[C@@H](CC(N)=O)C(=O)NCC(=O)NCC(=O)N[C@H](C(=O)N[C@@H](C)C(=O)N[C@@H](CC(N)=O)C(=O)N[C@@H](Cc1c[nH]c2ccccc12)C(=O)N[C@@H](Cc1ccc(O)cc1)C(=O)N[C@@H](Cc1ccccc1)C(=O)N[C@H](C(=O)N[C@@H](CC(C)C)C(=O)N[C@@H](C)C(=O)N[C@@H](CCCN=C(N)N)C(=O)O)C(C)C)C(C)C)[C@@H](C)O [MWITNGGVANWYFVLAR]

MIC [31]: 2 µM (≈ 4.6 µg/mL)
MIC [32]: 2 µM (≈ 4.6 µg/mL)
MIC [33]: 2 µM (≈ 4.6 µg/mL)
MIC [34]: 2 µM (≈ 4.6 µg/mL)
MIC [35]: 4 µM (≈ 9.21 µg/mL)
MIC [36]: 16 µM (≈ 36.8 µg/mL)
MIC [37]: 4 µM (≈ 9.21 µg/mL)
MIC [38]: 2 µM (≈ 4.6 µg/mL)
MIC [39]: 2 µM (≈ 4.6 µg/mL)
MIC [40]: 2 µM (≈ 4.6 µg/mL)
MIC [41]: 2 µM (≈ 4.6 µg/mL)
MIC [42]: 2 µM (≈ 4.6 µg/mL)
MIC [43]: 4 µM (≈ 9.21 µg/mL)
MIC [44]: 4 µM (≈ 9.21 µg/mL)
MIC [45]: 2 µM (≈ 4.6 µg/mL)
MIC [46]: 2 µM (≈ 4.6 µg/mL)
MIC [47]: 2 µM (≈ 4.6 µg/mL)
MIC [48]: 8 µM (≈ 18.4 µg/mL)
MIC [49]: 4 µM (≈ 9.21 µg/mL)
MIC [50]: 8 µM (≈ 18.4 µg/mL)
MIC [51]: 4 µM (≈ 9.21 µg/mL)
SMILES: CC[C@H](C)[C@H](NC(=O)[C@H](CCCCN)NC(=O)[C@H](Cc1c[nH]c2ccccc12)NC(=O)[C@@H](N)CCCN=C(N)N)C(=O)N[C@@H](Cc1ccccc1)C(=O)N[C@@H](CCCCN)C(=O)N[C@@H](CCCCN)C(=O)N[C@H](C(=O)N1CCC[C@H]1C(=O)N[C@@H](CCCCN)C(=O)N[C@@H](Cc1ccccc1)C(=O)N[C@@H](CC(C)C)C(=O)N[C@@H](Cc1cnc[nH]1)C(=O)N[C@@H](CO)C(=O)N[C@@H](C)C(=O)N[C@@H](CCCCN)C(=O)N[C@@H](CCCCN)C(=O)N[C@@H](Cc1ccccc1)C(N)=O)[C@@H](C)CC [RWKIFKKIPKFLHSAKKF]

Reference: DBAASP
